Values quoted from earlier work, collected in US20240350592A1, “COMPOSITION AND METHODS OF TREATMENT USING […]-ENHANCED SUPPLEMENTATION” (Xygenyx Inc., priority 2023, published 2024).
Square brackets hold non-standard residues; d marks the D form. Peptide text beside a SMILES is read from it. Cit = NC(=O)NCCC[C@H](N)C(=O)O

Columns and labels:
skin [1] = conditions: topical formulations; within four weeks of treatment
[2] = in vivo
[3] = tested on: neurodegenerative diseases such as Alzheimer's Syndrome or dementia; conditions: dietary supplementation, doses up to 400 IU/day; controlled trials
coronary disease = conditions: dietary supplementation, doses up to 400 IU/day
F2-isoprostane = conditions: doses of 1600-3200 IU/day
depression = conditions: patients who did not respond to traditional antidepressant medications
skin [4] = conditions: topical, concentrations 0.5-5%
markers of inflammation = conditions: individuals with metabolic syndrome
[5] = compared to α-tocopherol taken as 1.0
[6] = even when dietary intake occurs in equal portions
[7] = in vivo; remark: listed apart in the source
[8] = single penetration enhancer
[9] = tested on: wide dynamic range neurons in the ventroposterolateral nucleus of the thalamus
rheumatoid arthritis = conditions: arthritic subjects

CC[C@H](C)[C@H](NC(=O)[C@H](CC(=O)O)NC(=O)[C@@H](N)CCCCN)C(=O)N[C@@H](CCCNC(N)=O)C(N)=O [tripeptide-10 citrulline, Tripeptide-10 citrulline] (H-KDI[Cit]-NH2)
improvement of suppleness (skin [1]): ≤ 54%

CCNC(=O)CC[C@H](N)C(=O)O [Theanine]
dose generally considered safe and well-tolerated [2]: up to 400 mg per day

C/C(=C\CO)CCC[C@H](C)CCC[C@H](C)CCCC(C)C [Phytol]
solubility in water: nearly insoluble in water

Cc1c(C)c2c(c(C)c1O)CC[C@@](C)(CCC[C@H](C)CCC[C@H](C)CCCC(C)C)O2 [α-tocopherol]
reduction of the risk of developing neurodegenerative diseases [3]: ≤ 24%
reduction of the risk of coronary disease (coronary disease): up to 34%
blood plasma concentration of F2-isoprostane (F2-isoprostane): significantly lower

CN1c2c([nH]c(N)nc2=O)NCC1CNc1ccc(C(=O)N[C@@H](CCC(=O)O)C(=O)O)cc1 (stereo partly shown) [5-MTHF, 5-methyltetrahydrofolate]
symptoms of depression (depression): improved

C=CCCCCCCCCC(=O)N[C@@H](Cc1ccccc1)C(=O)O [UP, Undecylenoyl phenylalanine]
time of treatment to skin lightening effects (skin [4]): ≥ 7 days

Cc1cc(O)cc2c1O[C@](C)(CCC[C@H](C)CCC[C@H](C)CCCC(C)C)CC2 [δ-tocopherol]
markers of inflammation in the blood (markers of inflammation): reduced
relative biological activity [5]: 0.03

Cc1cc(O)c(C)c2c1O[C@](C)(CCC[C@H](C)CCC[C@H](C)CCCC(C)C)CC2 [β-tocopherol]
relative biological activity [5]: 0.5

Cc1c(O)cc2c(c1C)O[C@](C)(CCC[C@H](C)CCC[C@H](C)CCCC(C)C)CC2 [γ-tocopherol]
relative biological activity [5]: 0.1
concentration in vivo relative to α-tocopherol [6]: roughly 10%

HGH: hormone comprising a peptide chain that is synthesized in the pituitary gland
biological half-life [7]: 10-20 minutes

CC12CCC(CC1)C(C)(C)O2 [eucalyptol, 1,8-epoxy-p-menthane]
factor of increase of transdermal drug uptake [8]: more than 10

CCCCCc1cc(O)c2c(c1)OC(C)(C)C1CCC(C)=CC21 (stereo not shown) [THC, Δ-9-tetrahydrocannabinol]
power in mediating pain compared to morphine [9]: ten times more powerful than morphine

C=C1CC/C=C(\C)CC[C@@H]2[C@@H]1CC2(C)C [β-caryophyllene]
number of circulating and articular leukocytes (rheumatoid arthritis): reduced
swelling of joints and lymph nodes (rheumatoid arthritis): reduced

CC(C)[C@@H]1CC[C@@H](C)C[C@H]1O [Menthol]
factor of increase of transdermal drug uptake [8]: ≥ 10
